From US8685942B2, “Sophorolipid analog compositions” (priority 2010, dated 2014)
≈ marks a conversion by molar mass, not a printed value. Read-outs that look alike come from different tables or passages of the source.

Tests used:
[1] = tested on: pathogens; assay: Antifungal MIC screen, summary over the pathogen panel; type: cell-based; details: of the eight pathogens of Tables 2-4
Description: (§1) The hydrogenated lactonic sophorolipids have antifungal activity, which were confirmed by experiment and observations. Sophorolipid samples were dissolved in 5% ethanol solution to a final concentration of 5 mg/mL and used as a stock solution. The stock solution (100 μl) was added into a 96 well microplate and serially diluted from 2.5 mg/ml to 0.0024 mg/ml using culture medium. After serial dilution, 80 μl of fresh culture medium and 20 μl of spore suspension were added to each well and the plates were incubated for 7 days. The minimum inhibitory concentration (MIC) was determined to measure antifungal activity of sophorolipid-derived compounds. MIC values for antifungal activity were determined by absence of visible growth in the micro wells containing sophorolipid after 7 days of incubation. Natural and lactonic SLs were active against four pathogens, whereas hydrogenated lactonic and acidic SLs active against three and two pathogens respectively.
as §1, with “acidic sophorolipid esters” for “hydrogenated lactonic sophorolipids”, “incubation.” for “incubation. Natural and lactonic SLs were active against four pathogens, whereas hydrogenated lactonic and acidic SLs active against three and two pathogens respectively.”
as §1, with “acidic sophorolipid amide derivatives” for “hydrogenated lactonic sophorolipids”, “incubation.” for “incubation. Natural and lactonic SLs were active against four pathogens, whereas hydrogenated lactonic and acidic SLs active against three and two pathogens respectively.”

[2] = tested on: Botrytis cinerea; assay: Antifungal MIC, 96 well microplate, spore suspension; type: cell-based
Description: as §1, with “Sophorolipid” for “The hydrogenated lactonic sophorolipids have antifungal activity, which were confirmed by experiment and observations. Sophorolipid”, “incubation.” for “incubation. Natural and lactonic SLs were active against four pathogens, whereas hydrogenated lactonic and acidic SLs active against three and two pathogens respectively.”
as §1, with “Sophorolipid” for “The hydrogenated lactonic sophorolipids have antifungal activity, which were confirmed by experiment and observations. Sophorolipid”, “incubation.” for “incubation. Natural and lactonic SLs were active against four pathogens, whereas hydrogenated lactonic and acidic SLs active against three and two pathogens respectively.”
as §1, with “Sophorolipid” for “The hydrogenated lactonic sophorolipids have antifungal activity, which were confirmed by experiment and observations. Sophorolipid”, “incubation.” for “incubation. Natural and lactonic SLs were active against four pathogens, whereas hydrogenated lactonic and acidic SLs active against three and two pathogens respectively.”

[3] = tested on: Alternariatomatophilia; assay: as above; type: cell-based
Description: as §1, with “Sophorolipid” for “The hydrogenated lactonic sophorolipids have antifungal activity, which were confirmed by experiment and observations. Sophorolipid”, “incubation.” for “incubation. Natural and lactonic SLs were active against four pathogens, whereas hydrogenated lactonic and acidic SLs active against three and two pathogens respectively.”
as §1, with “Sophorolipid” for “The hydrogenated lactonic sophorolipids have antifungal activity, which were confirmed by experiment and observations. Sophorolipid”, “incubation.” for “incubation. Natural and lactonic SLs were active against four pathogens, whereas hydrogenated lactonic and acidic SLs active against three and two pathogens respectively.”
as §1, with “Sophorolipid” for “The hydrogenated lactonic sophorolipids have antifungal activity, which were confirmed by experiment and observations. Sophorolipid”, “incubation.” for “incubation. Natural and lactonic SLs were active against four pathogens, whereas hydrogenated lactonic and acidic SLs active against three and two pathogens respectively.”

[4] = tested on: A. alternate; assay: as above; type: cell-based; details: 168 h
Description: as §1, with “Sophorolipid” for “The hydrogenated lactonic sophorolipids have antifungal activity, which were confirmed by experiment and observations. Sophorolipid”, “incubation.” for “incubation. Natural and lactonic SLs were active against four pathogens, whereas hydrogenated lactonic and acidic SLs active against three and two pathogens respectively.”
as §1, with “Sophorolipid” for “The hydrogenated lactonic sophorolipids have antifungal activity, which were confirmed by experiment and observations. Sophorolipid”, “incubation.” for “incubation. Natural and lactonic SLs were active against four pathogens, whereas hydrogenated lactonic and acidic SLs active against three and two pathogens respectively.”
as §1, with “Sophorolipid” for “The hydrogenated lactonic sophorolipids have antifungal activity, which were confirmed by experiment and observations. Sophorolipid”, “incubation.” for “incubation. Natural and lactonic SLs were active against four pathogens, whereas hydrogenated lactonic and acidic SLs active against three and two pathogens respectively.”

[5] = tested on: A. solani; assay: as above; type: cell-based
Description: as §1, with “Sophorolipid” for “The hydrogenated lactonic sophorolipids have antifungal activity, which were confirmed by experiment and observations. Sophorolipid”, “incubation.” for “incubation. Natural and lactonic SLs were active against four pathogens, whereas hydrogenated lactonic and acidic SLs active against three and two pathogens respectively.”
as §1, with “Sophorolipid” for “The hydrogenated lactonic sophorolipids have antifungal activity, which were confirmed by experiment and observations. Sophorolipid”, “incubation.” for “incubation. Natural and lactonic SLs were active against four pathogens, whereas hydrogenated lactonic and acidic SLs active against three and two pathogens respectively.”
as §1, with “Sophorolipid” for “The hydrogenated lactonic sophorolipids have antifungal activity, which were confirmed by experiment and observations. Sophorolipid”, “incubation.” for “incubation. Natural and lactonic SLs were active against four pathogens, whereas hydrogenated lactonic and acidic SLs active against three and two pathogens respectively.”

[6] = tested on: vaginal cell; details: cited from earlier work
[7] = tested on: Phytophthorainfestans; assay: Antifungal MIC, 96 well microplate, spore suspension; type: cell-based; details: absence of visible growth after 7 days, diluted from 2.5 to 0.0024 mg/ml
Description: as §1, with “Sophorolipid” for “The hydrogenated lactonic sophorolipids have antifungal activity, which were confirmed by experiment and observations. Sophorolipid”, “incubation.” for “incubation. Natural and lactonic SLs were active against four pathogens, whereas hydrogenated lactonic and acidic SLs active against three and two pathogens respectively.”
as §1, with “Sophorolipid” for “The hydrogenated lactonic sophorolipids have antifungal activity, which were confirmed by experiment and observations. Sophorolipid”, “incubation.” for “incubation. Natural and lactonic SLs were active against four pathogens, whereas hydrogenated lactonic and acidic SLs active against three and two pathogens respectively.”
as §1, with “Sophorolipid” for “The hydrogenated lactonic sophorolipids have antifungal activity, which were confirmed by experiment and observations. Sophorolipid”, “incubation.” for “incubation. Natural and lactonic SLs were active against four pathogens, whereas hydrogenated lactonic and acidic SLs active against three and two pathogens respectively.”

[8] = tested on: Salmonella choleraesuis; details: cited from earlier work
[9] = tested on: Moraxella; details: cited from earlier work
[10] = tested on: Ralstoniaeutropha; details: cited from earlier work
[11] = tested on: Fusarimoxysporium; assay: Antifungal MIC, 96 well microplate, spore suspension; type: cell-based; details: absence of visible growth after 7 days, diluted from 2.5 to 0.0024 mg/ml
Description: as §1, with “Sophorolipid” for “The hydrogenated lactonic sophorolipids have antifungal activity, which were confirmed by experiment and observations. Sophorolipid”, “incubation.” for “incubation. Natural and lactonic SLs were active against four pathogens, whereas hydrogenated lactonic and acidic SLs active against three and two pathogens respectively.”
as §1, with “Sophorolipid” for “The hydrogenated lactonic sophorolipids have antifungal activity, which were confirmed by experiment and observations. Sophorolipid”, “incubation.” for “incubation. Natural and lactonic SLs were active against four pathogens, whereas hydrogenated lactonic and acidic SLs active against three and two pathogens respectively.”
as §1, with “Sophorolipid” for “The hydrogenated lactonic sophorolipids have antifungal activity, which were confirmed by experiment and observations. Sophorolipid”, “incubation.” for “incubation. Natural and lactonic SLs were active against four pathogens, whereas hydrogenated lactonic and acidic SLs active against three and two pathogens respectively.”

[12] = tested on: Phytophthoracapsici; assay: as above; type: cell-based; details: absence of visible growth after 7 days, diluted from 2.5 to 0.0024 mg/ml
Description: as §1, with “Sophorolipid” for “The hydrogenated lactonic sophorolipids have antifungal activity, which were confirmed by experiment and observations. Sophorolipid”, “incubation.” for “incubation. Natural and lactonic SLs were active against four pathogens, whereas hydrogenated lactonic and acidic SLs active against three and two pathogens respectively.”
as §1, with “Sophorolipid” for “The hydrogenated lactonic sophorolipids have antifungal activity, which were confirmed by experiment and observations. Sophorolipid”, “incubation.” for “incubation. Natural and lactonic SLs were active against four pathogens, whereas hydrogenated lactonic and acidic SLs active against three and two pathogens respectively.”
as §1, with “Sophorolipid” for “The hydrogenated lactonic sophorolipids have antifungal activity, which were confirmed by experiment and observations. Sophorolipid”, “incubation.” for “incubation. Natural and lactonic SLs were active against four pathogens, whereas hydrogenated lactonic and acidic SLs active against three and two pathogens respectively.”

[13] = tested on: Rhodoccocuserythropolis; details: cited from earlier work
[14] = tested on: Eserichia coli; details: cited from earlier work
[15] = Alternariatomatophilia, absence of visible growth after 7 days, diluted from 2.5 to 0.0024 mg/ml
[16] = A. solani, absence of visible growth after 7 days, diluted from 2.5 to 0.0024 mg/ml

SMILES | number of pathogens active against [1] | MIC100 [8] [µg/mL] | MIC100 [9] [µg/mL] | MIC100 [10] [µg/mL] | MIC [12] [µg/mL] | MIC100 [13] [µg/mL] | MIC100 [14] [µg/mL] | also measured
CC(CCCCCC/C=C\CCCCCCCC(=O)NCC[N+](C)(C)C)OC1OC(CO)C(O)C(O)C1OC1OC(CO)C(O)C(O)C1O (centres unmarked) [SL-AM-4, (Z)-2-(17-((4,5-dihydroxy-6-(hydroxymethyl)-3-((3,4,5-trihydroxy-6 (hydroxyl methyl)tetrahydro-2H-pyran-2-yl)oxy)tetrahydro-2H-pyran-2-yl)oxy)octadec-9-enamido)-N,N,N-trimethylethanaminium iodide] | four | – | – | – | – | – | – | MIC ([2]; 168 h, absence of visible growth after 7 days, diluted from 2.5 to 0.0024 mg/ml, read-out: MIC): 600 µg/mL; MIC ([3]; 168 h, Alternariatomatophilia, absence of visible growth after 7 days, diluted from 2.5 to 0.0024 mg/ml, read-out: MIC): 150 µg/mL; MIC ([4]; A. alternate, absence of visible growth after 7 days, diluted from 2.5 to 0.0024 mg/ml, read-out: MIC): 1250 µg/mL; MIC ([5]; Alternaria solani, 168 h, A. solani, absence of visible growth after 7 days, diluted from 2.5 to 0.0024 mg/ml, read-out: MIC): 600 µg/mL
CCOC(=O)CCCCCCC/C=C\CCCCCCC(C)O[C@@H]1O[C@H](COC(C)=O)[C@@H](O)[C@H](O)[C@H]1O[C@@H]1O[C@H](COC(C)=O)[C@@H](O)[C@H](O)[C@H]1O (some centres unmarked) [sophorolipid diacetate ethyl ester] | – | – | – | – | – | – | – | vaginal cell toxicity [6]: induces sufficient vaginal cell toxicity to raise concerns
CCCCOC(=O)CCCCCCC/C=C\CCCCCCC(C)OC1OC(CO)C(O)C(O)C1OC1OC(CO)C(O)C(O)C1O (centres unmarked) [SL-E-3] | three | – | – | – | – | – | – | MIC [3, 15]: 150 µg/mL (≈ 221 µM); MIC [5, 16]: 1250 µg/mL (≈ 1840 µM); MIC [7]: 1250 µg/mL (≈ 1840 µM)
CC(CCCCCC/C=C\CCCCCCCC(=O)NCCN(C)C)OC1OC(CO)C(O)C(O)C1OC1OC(CO)C(O)C(O)C1O (centres unmarked) [SL-AM-3, (Z)-17-((4,5-dihydroxy-6-(hydroxymethyl)-3-((3,4,5-trihydroxy-6-(hydroxymethyl)tetrahydro-2H-pyran-2-yl)oxy)tetrahydro-2H-pyran-2-yl)oxy)-N-(2-(dimethylamino)ethyl)-octadec-9-enamide] | four | – | – | – | – | – | – | MIC ([2]; 168 h): 600 µg/mL (≈ 866 µM); MIC ([3]; 168 h): 300 µg/mL (≈ 433 µM); MIC [4]: 1250 µg/mL (≈ 1800 µM); MIC ([5]; Alternaria solani, 168 h): 150 µg/mL (≈ 216 µM)
COC(=O)CCCCCCC/C=C\CCCCCCC(C)OC1OC(CO)C(O)C(O)C1OC1OC(CO)C(O)C(O)C1O (centres unmarked) [SL-E-1, sophorolipid methyl ester] | three | 1670 (≈ 2620 µM) | 61.7 (≈ 96.9 µM) | 5000 (≈ 7850 µM) | 1250 (≈ 1960 µM) | 5000 (≈ 7850 µM) | 1670 (≈ 2620 µM) | MIC [11]: 2500 µg/mL (≈ 3930 µM); MIC [5, 16]: 2500 µg/mL (≈ 3930 µM)
CC(CCCCCC/C=C\CCCCCCCC(=O)NCCO)OC1OC(CO)C(O)C(O)C1OC1OC(CO)C(O)C(O)C1O (centres unmarked) [SL-AM-1] | – | – | – | – | – | – | – | MIC ([2]; absence of visible growth after 7 days, diluted from 2.5 to 0.0024 mg/ml): 2500 µg/mL (≈ 3750 µM); MIC [3, 15]: 2500 µg/mL (≈ 3750 µM)
CC(CCCCCC/C=C\CCCCCCCC(=O)O)OC1OC(CO)C(O)C(O)C1OC1OC(CO)C(O)C(O)C1O (centres unmarked) [SL-A-4] | – | 5000 (≈ 8030 µM) | 5000 (≈ 8030 µM) | 5000 (≈ 8030 µM) | – | 560 (≈ 899 µM) | 5000 (≈ 8030 µM) | –
CCCCOC(=O)CCCCCCC/C=C\CCCCCCC(C)OC1OC(CO)C(O)C(O)C1OC1OC(COC(C)=O)C(O)C(O)C1O (centres unmarked) [SL-E-6] | one | – | – | – | 600 (≈ 832 µM) | – | – | –
CCCCOC(=O)CCCCCCC/C=C\CCCCCCC(C)OC1OC(COC(C)=O)C(O)C(O)C1OC1OC(COC(C)=O)C(O)C(O)C1O (centres unmarked) [SL-E-8] | one | – | – | – | – | – | – | MIC [5, 16]: 1250 µg/mL (≈ 1640 µM)
CCCCCCOC(=O)CCCCCCC/C=C\CCCCCCC(C)OC1OC(CO)C(O)C(O)C1OC1OC(CO)C(O)C(O)C1O (centres unmarked) [SL-E-9] | – | 5000 (≈ 7070 µM) | 1670 (≈ 2360 µM) | 5000 (≈ 7070 µM) | – | – | 1670 (≈ 2360 µM) | –
CCOC(=O)CCCCCCC/C=C\CCCCCCC(C)OC1OC(CO)C(O)C(O)C1OC1OC(COC(C)=O)C(O)C(O)C1O (centres unmarked) [SL-E-4] | one | 5000 (≈ 7220 µM) | 20.5 (≈ 29.6 µM) | 5000 (≈ 7220 µM) | 600 (≈ 866 µM) | 6.86 (≈ 9.9 µM) | 5000 (≈ 7220 µM) | –
CCOC(=O)CCCCCCC/C=C\CCCCCCC(C)OC1OC(COC(C)=O)C(O)C(O)C1OC1OC(COC(C)=O)C(O)C(O)C1O (centres unmarked) [SL-E-5] | one | 5000 (≈ 6800 µM) | 61.7 (≈ 84 µM) | 5000 (≈ 6800 µM) | 600 (≈ 816 µM) | 5000 (≈ 6800 µM) | 5000 (≈ 6800 µM) | –
